Assay [1] relates to CD86 surface expression on CD19+/7AAD- mouse splenocytes stimulated with IgM. The experiment in a line: CD86 Inhibition Assay. It is filed as cell-based. The conditions noted are these: Splenocyte; total mouse splenocytes (Balb/c), IgM stimulation 24 hr.
Experimental: Following the 24 hr incubation, cells are transferred to conical bottom clear 96-well plates and pelleted by centrifugation at 1200×g×5 min. […] Cells are sorted on a BD FACSCalibur and gated on the CD19^+/7AAD^− population. The levels of CD86 surface expression on the gated population is measured versus test compound concentration.
The next assay deals with Btk (Homo sapiens (Human), UniProt Q06187). Kind of assay: standard biochemical Btk Kinase Assay (Example 901). To be noted: Table 2.

For orientation: EC50 means the concentration at which the effect is half-maximal. Higher therefore signals weaker potency. A word on the IC50: it is the concentration needed to halve the response being measured.

The structures appear in SMILES notation.

Chain of Btk (Q06187 whole entry): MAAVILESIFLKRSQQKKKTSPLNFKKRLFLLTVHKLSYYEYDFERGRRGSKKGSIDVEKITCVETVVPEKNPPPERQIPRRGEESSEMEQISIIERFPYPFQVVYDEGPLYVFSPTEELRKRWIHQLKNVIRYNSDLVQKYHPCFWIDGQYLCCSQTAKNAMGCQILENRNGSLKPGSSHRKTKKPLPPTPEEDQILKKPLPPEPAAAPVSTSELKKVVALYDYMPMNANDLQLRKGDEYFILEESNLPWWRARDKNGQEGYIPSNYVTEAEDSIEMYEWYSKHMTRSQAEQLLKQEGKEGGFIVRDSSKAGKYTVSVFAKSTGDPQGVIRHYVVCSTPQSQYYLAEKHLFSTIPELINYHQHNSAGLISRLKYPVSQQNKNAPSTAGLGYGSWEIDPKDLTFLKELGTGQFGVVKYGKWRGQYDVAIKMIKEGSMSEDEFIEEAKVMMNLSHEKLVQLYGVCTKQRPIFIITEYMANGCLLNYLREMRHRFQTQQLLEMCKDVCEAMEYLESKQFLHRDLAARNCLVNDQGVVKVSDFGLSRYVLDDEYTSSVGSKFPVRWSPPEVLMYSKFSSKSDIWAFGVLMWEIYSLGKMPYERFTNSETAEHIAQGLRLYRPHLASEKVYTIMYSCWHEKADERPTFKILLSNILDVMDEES
Text for Btk: Determination of IC50 values can be accomplished using conventional techniques known in the art. In general, an IC50 can be determined by measuring the activity of a given enzyme in the presence of a range of concentrations of the inhibitor under study. The experimentally obtained values of enzyme activity then are plotted against the inhibitor concentrations used. […] Analogously, other inhibitory concentrations can be defined through appropriate determinations of activity.

Molecule `Cn1cc(-c2cccc(N3CCn4c(cc5c4CCCC5)C3=O)c2CO)nc(Nc2cnn(C3CC3)c2)c1=O` [Example 114, 2-(3-(6-(1-cyclopropyl-1H-pyrazol-4-ylamino)-4-methyl-5-oxo-4,5-dihydropyrazin-2-yl)-2-(hydroxymethyl)phenyl)-3,4,6,7,8,9-hexahydropyrazino[1,2-a]indol-1(2H)-one] yielded an EC50 in assay [1] of 188 nM.

Regarding `Cn1cc(-c2cc(F)cc(N3CCc4c(sc5c4CCCC5)C3=O)c2CO)cc(Nc2ccncn2)c1=O` [Example 115, 5-[5-Fluoro-2-(hydroxymethyl)-3-[1-methyl-6-oxo-5-(pyrimidin-4-ylamino)-1,6-dihydropyridin-3-yl]phenyl]-8-thia-5-azatricyclo[7.4.0.02,7]trideca-1(9),2(7)-dien-6-one], the response in assay [1] was half-maximal at 78 nM (EC50).

As for `Cn1cc(-c2cc(F)cc(N3CCn4c(cc5c4CCCC5)C3=O)c2CO)cc(Nc2ccc(N3CCN(C4COC4)CC3)cn2)c1=O` [Example 210, 2-(5-fluoro-2-(hydroxymethyl)-3-(1-methyl-5-(5-(4-(oxetan-3-yl)piperazin-1-yl)pyridin-2-ylamino)-6-oxo-1,6-dihydropyridin-3-yl)phenyl)-3,4,6,7,8,9-hexahydropyrazino[1,2-a]indol-1(2H)-one], it took 10 nM to reach a half-maximal effect in assay [1] (EC50).

Molecule `Cn1cc(-c2cc(F)cc(N3CCc4c(sc5c4CCCC5)C3=O)c2CO)cc(Nc2ccc(N3CCN(C4COC4)CC3)cn2)c1=O` [Example 211, 5-[5-Fluoro-2-(hydroxymethyl)-3-[1-methyl-5-({5-[4-(oxetan-3-yl)piperazin-1-yl]pyridin-2-yl}amino)-6-oxo-1,6-dihydropyridin-3-yl]phenyl]-8-thia-5-azatricyclo[7.4.0.0^2,7]trideca-1(9),2(7)-dien-6-one] yielded an EC50 in assay [1] of 9 nM. This EC50 and that of the molecule before are within 1.5-fold of each other.

For the molecule `CN1CCN(c2ccc(Nc3cc(-c4cc(F)cc(N5CCc6c(sc7c6CCCC7)C5=O)c4CO)cn(C)c3=O)nc2)CC1` [Example 212, 5-[5-Fluoro-2-(hydroxymethyl)-3-(1-methyl-5-{[5-(4-methylpiperazin-1-yl)pyridine-2-yl]amino}-6-oxo-1,6-dihydropyridin-3-yl)phenyl]-8-thia-5-azatricyclo[7.4.0.0^2,7]trideca-1(9),2(7)-dien-6-one], it took 9 nM to reach a half-maximal effect in assay [1] (EC50).

For `CC(C)N(C)Cc1ccc(Nc2cc(-c3cc(F)cc(N4CCc5c(sc6c5CCCC6)C4=O)c3CO)cn(C)c2=O)nc1` [Example 277, 5-[5-Fluoro-2-(hydroxymethyl)-3-{1-methyl-5-[(5-{[methyl(propan-2-yl)amino]methyl}pyridine-2-yl)amino]-6-oxo-1,6-dihydropyridin-3-yl}phenyl]-8-thia-5-azatricyclo[7.4.0.0^2,7]trideca-1(9),2(7)-dien-6-one], it took 28 nM to reach a half-maximal effect in assay [1] (EC50).

On to `Cn1cc(-c2cc(F)cc(N3CCc4c(sc5c4CCCC5)C3=O)c2CO)cc(Nc2ccc(N3CCOCC3)cn2)c1=O` [Example 289, 2-(5-Fluoro-2-(hydroxymethyl)-3-(1-methyl-5-(5-morpholinopyridin-2-ylamino)-6-oxo-1,6-dihydropyridin-3-yl)phenyl)-3,4,5,6,7,8-hexahydrobenzothieno[2,3-c]pyridin-1(2H)-one], for which the concentration giving a half-maximal response (EC50) in assay [1] came to 10 nM.

`CN1CCC[C@H]1c1ccc(Nc2cc(-c3cc(F)cc(N4CCn5c(cc6c5CC(C)(C)C6)C4=O)c3CO)cn(C)c2=O)nc1` [Example 290, 10-[5-Fluoro-2-(hydroxymethyl)-3-[1-methyl-5-({5-[(2S)-1-methylpyrrolidin-2-yl]pyridine-2-yl}amino)-6-oxo-1,6-dihydropyridin-3-yl]phenyl]-4,4-dimethyl-1,10-diazatricyclo[6.4.0.0^2,6]dodeca-2(6),7-dien-9-one] returned an EC50 in assay [1] of 10 nM.

With `CN(C)CCOc1ccc(Nc2cc(-c3cc(F)cc(N4CCc5c(sc6c5CC(C)(C)C6)C4=O)c3CO)cn(C)c2=O)nc1` [Example 296, 10-{3-[5-({5-[2-(Dimethylamino)ethoxy]pyridin-2-yl}amino)-1-methyl-6-oxo-1,6-dihydropyridin-3-yl]-5-fluoro-2-(hydroxymethyl)phenyl}-4,4-dimethyl-7-thia-10-azatricyclo[6.4.0.0^2,6]dodeca-1(8),2(6)-dien-9-one], in assay [1], a half-maximal effect (EC50) was put at 1 nM.

For `Cn1cc(-c2cc(F)cc(N3CCc4c(sc5c4CC(C)(C)C5)C3=O)c2CO)cc(Nc2ccc(C3CCN(C4COC4)CC3)cn2)c1=O` [Example 299, 10-[5-Fluoro-2-(hydroxymethyl)-3-[1-methyl-5-({5-[1-(oxetan-3-yl)piperidin-4-yl]pyridine-2-yl}amino)-6-oxo-1,6-dihydropyridin-3-yl]phenyl]-4,4-dimethyl-7-thia-10-azatricyclo[6.4.0.0^2,6]dodeca-1(8),2(6)-dien-9-one], in assay [1], the EC50 was 9 nM. This EC50 is about 9-fold higher than that of the molecule before.

Regarding `COc1nccc(Nc2cc(-c3cc(F)cc(N4CCn5c(cc6c5CC(C)(C)C6)C4=O)c3CO)cn(C)c2=O)n1` [Example 300], in assay [1], the EC50 came to 9 nM. In other words, the single-digit nanomolar range.

The molecule `CCn1nc(Nc2cc(-c3cc(F)cc(N4CCn5c(cc6c5CC(C)(C)C6)C4=O)c3CO)cn(C)c2=O)cc1C` [Example 302, 10-(3-{5-[(1-Ethyl-5-methyl-1H-pyrazol-3-yl)amino]-1-methyl-6-oxo-1,6-dihydropyridin-3-yl}-5-fluoro-2-(hydroxymethyl)phenyl)-4,4-dimethyl-1,10-diazatricyclo[6.4.0.0^2,6]dodeca-2(6),7-dien-9-one] had a half-inhibitory concentration (IC50) against Btk of 9.9 nM.

On to `Cn1cc(-c2cc(F)cc(N3CCn4c(cc5c4CC(C)(C)C5)C3=O)c2CO)cc(Nc2ccc(N3CCN(C4COC4)CC3)cn2)c1=O` [Example 304, 10-[5-Fluoro-2-(hydroxymethyl)-3-[1-methyl-5-({5-[4-(oxetan-3-yl)piperazin-1-yl]pyridine-2-yl}amino)-6-oxo-1,6-dihydropyridin-3-yl]phenyl]-4,4-dimethyl-1,10-diazatricyclo[6.4.0.0^2,6]dodeca-2(6),7-dien-9-one], for which the IC50 at Btk is 7.8 nM.

Turning to `Cn1cc(-c2cccc(N3CCc4c(sc5c4CCCC5)C3=O)c2CO)nc(Nc2ccc(C3CCN(C4COC4)CC3)cc2)c1=O` [Example 305, 5-[2-(Hydroxymethyl)-3-[4-methyl-6-({4-[1-(oxetan-3-yl)piperidin-4-yl]phenyl}amino)-5-oxo-4,5-dihydropyrazin-2-yl]phenyl]-8-thia-5-azatricyclo[7.4.0.0^2,7]trideca-1(9),2(7)-dien-6-one], at Btk, the midpoint of inhibition, the IC50, lay at 17.1 nM.

At Btk, `CN1CCN(c2ccc(Nc3cc(-c4cccc(N5CCn6c(cc7c6CCCC7)C5=O)c4CO)nn(C)c3=O)nc2)CC1` [Example 307, 2-(2-(Hydroxymethyl)-3-(1-methyl-5-(5-(4-methylpiperazin-1-yl)pyridin-2-ylamino)-6-oxo-1,6-dihydropyridazin-3-yl)phenyl)-3,4,6,7,8,9-hexahydropyrazino[1,2-a]indol-1(2H)-one] displayed an IC50 of 7.1 nM.

`CN1CCC(c2ccc(Nc3cc(-c4cc(F)cc(N5CCc6c(sc7c6CCCC7)C5=O)c4CO)cn(C)c3=O)nc2)C1` (stereo not shown) [Example 308, 5-[5-Fluoro-2-(Hydroxymethyl)-3-(1-methyl-5-{[5-(1-methylpyrrolidin-3-yl)pyridine-2-yl]amino}-6-oxo-1,6-dihydropyridin-3-yl)phenyl]-8-thia-5-azatricyclo-[7.4.0.0^2,7]trideca-1(9),2(7)-dien-6-one]: the concentration for a half-maximal effect (EC50) in assay [1] stood at 63 nM.

Take `Cn1cc(-c2cccc(N3CCc4c(cc5n4CCCC5)C3=O)c2CO)cc(Nc2cc3n(n2)CCOC3)c1=O` [Example 309, 5-[2-(Hydroxymethyl)-3-{1-oxo-1H,2H,3H,4H,6H,7H,8H,9H-pyrido[3,4-b]indolizin-2-yl}phenyl]-1-methyl-3-{4H,6H,7H-pyrazolo[3,2-c][1,4]oxazin-2-ylamino}-1,2-dihydropyridin-2-one]: half-maximal inhibition against Btk (IC50) was put at 16.5 nM.

Consider `CCN1CCN(c2ccc(Nc3cc(-c4cccc(N5CCc6c(cc7n6CCCC7)C5=O)c4CO)cn(C)c3=O)nc2)CC1` [Example 310, 3-{[5-(4-Ethylpiperazin-1-yl)pyridine-2-yl]amino}-5-[2-(hydroxymethyl)-3-{1-oxo-1H,2H,3H,4H,6H,7H,8H,9H-pyrido[3,4-b]indolizin-2-yl}phenyl]-1-methyl-1,2-dihydropyridin-2-one], for which the half-inhibitory concentration (IC50) against Btk was 16.6 nM.

In turn, `Cn1cc(-c2cccc(N3CCn4c(cc5c4CC(C)(C)C5)C3=O)c2CO)cc(Nc2ccc(N3CCN(C4COC4)CC3)cn2)c1=O` [Example 311, 10-[2-(Hydroxymethyl)-3-[1-methyl-5-({5-[4-(oxetan-3-yl)piperazin-1-yl]pyridine-2-yl}amino)-6-oxo-1,6-dihydropyridin-3-yl]phenyl]-4,4-dimethyl-1,10-diazatricyclo[6.4.0.0^2,6]dodeca-2(6),7-dien-9-one] came in with a concentration giving a half-maximal response (EC50) in assay [1] of 30 nM.

In assay [1], `Cn1cc(-c2cc(F)cc(N3CCc4c(sc5c4CC(C)(C)C5)C3=O)c2CO)cc(Nc2cc3n(n2)CCN(C2COC2)C3)c1=O` [Example 318, 10-[5-Fluoro-2-(hydroxymethyl)-3-(1-methyl-5-{[5-(oxetan-3-yl)-4H,5H,6H,7H-pyrazolo[1,5-a]pyrazin-2-yl]amino}-6-oxo-1,6-dihydropyridin-3-yl)phenyl]-4,4-dimethyl-7-thia-10-azatricyclo[6.4.0.0^2,6]dodeca-1(8),2(6)-dien-9-one] registered an EC50 of 18 nM. This EC50 is about 1.7-fold lower than that of the molecule before.

Regarding `Cn1cc(-c2cccc(N3CCn4c(cc5c4CCCC5)C3=O)c2CO)cc(Nc2cc3n(n2)CCN(C2COC2)C3)c1=O` [Example 319, 2-(2-(Hydroxymethyl)-3-(1-methyl-5-(5-(oxetan-3-yl)-4,5,6,7-tetrahydropyrazolo[1,5-a]pyrazin-2-ylamino)-6-oxo-1,6-dihydropyridin-3-yl)phenyl)-3,4,6,7,8,9-hexahydropyrazino[1,2-a]indol-1(2H)-one], the EC50 in assay [1] amounted to 16 nM.

As for `CN(Cc1cc(Nc2cc(-c3cc(F)cc(N4CCn5c(cc6c5CC(C)(C)C6)C4=O)c3CO)cn(C)c2=O)nn1C)C1COC1` [Example 321, 10-[5-Fluoro-2-(Hydroxymethyl)-3-{1-methyl-5-[(1-methyl-5-{[methyl(oxetan-3-yl)amino]methyl}-1H-pyrazol-3-yl)amino]-6-oxo-1,6-dihydropyridin-3-yl}phenyl]-4,4-dimethyl-1,10-diazatricyclo[6.4.0.0^2,6]dodeca-2(6),7-dien-9-one], in assay [1], it took 44 nM to reach a half-maximal effect (EC50). Compared with the last molecule, the EC50 is about 2.8-fold higher.
